Assays:
[1] = target: DAR-2 (Drosophila melanogaster, UniProt Q7KRX1); experiment: DAR-2 (allatostatin receptor) calcium response FLIPR assay in transfected CHO cells; assay type: cell-based; conditions: CHO cells transfected with DAR-2 DNA; calcium signal (Fluo-3AM, FLIPR)
Experimental: Compounds of the invention were evaluated in an allatostatin receptor binding assay as has been described (Larsen, M. J. et. al., Biochemical and Biophysical Reseach Communications, 2001, 286, 895-901; Lowery, D. E., et. al., 2001, WO 01/31005). Anthelmintic activity was evaluated in a Ascaris suum muscle tension assay as has been described (Bowman, J. W., et. al., J Neurophys., 1995, 74(5), 1880-8; Davis, R. E., et. al., J. Neurosci., 1989, 9, 403-414).
As previously described (Larsen op.cit.), CHO cells were transfected with the DAR-2 DNA on 10 cm plates ([…]) and were trypsinized 24 h after transfections and were plated at a density of 2×10^4 cells/well in black-walled, 96-well plates and incubated for an additional 24 hrs at 37° C./5% CO2 either with or without pertussis toxin (PTX, 100 ng/ml). On the day of treatment, the media were aspirated, the cells were washed with HBBS/HEPES (Hank's Balanced Salt Solution, supplemented with 10 mM HEPES) and incubated with 4 μM Fluo-3AM in HBSS/HEPES, additionally supplemented with 2.5 mM probenecid to inhibit multi drug resistant pump (0.1 ml/well) for 1 h at 37° C./5% CO2. Plates were washed twice with warm HBSS/HEPES/ probenecid buffer immediately prior to activation of the calcium response and 100 μl buffer/per well was left after the last wash. A calcium response was initiated by the addition of candidate receptor agonist compounds (2× concentration in HBSS/HEPES, 100 μl/well). The DSK-R1/SHEP cells were loaded for 1 h at 37° C./5% CO2 with 4 μM calcium green/0.02% pluronic acid in modified Earle's balanced salt solution containing 4 mM CaCl2 dihydrate, 0.8 mM MgSO4.7H2O, 20 mM NaCl, 20 mM Tris-HEPES, 120 mM N-methyl-D-glucamine/HCl, 5.3 mM KCl, […], and 9 mM Tris base. Fluorescence was measured on a 96-well plate-based fluorescence imaging plate reader (FLIPR) with an argon laser (Molecular Devices, Sunnyvale, Calif.). Basal fluorescence of cells was measured for 20 seconds prior to addition of candidate agonist and the basal fluorescence level was subtracted from the response signal. The calcium signal was measured for approximately 200 seconds with readings every two seconds. Calcium ionophore A23187 was used as a control for non-receptor specific calcium release. […]

[2] = test system: Ascaris suum muscle strip; experiment: Ascaris suum muscle tension assay; conditions: 30 uM final bath concentration; 2 cm Ascaris suum muscle strip in Ascaris Ringers Solution, 37°
Experimental: Compounds of the invention were evaluated in an allatostatin receptor binding assay as has been described (Larsen, M. J. et. al., Biochemical and Biophysical […] Communications, 2001, 286, 895-901; Lowery, D. E., et. al., 2001, WO 01/31005). Anthelmintic activity was evaluated in a Ascaris suum muscle tension assay as has been described (Bowman, J. W., et. al., J Neurophys., 1995, 74(5), 1880-8; Davis, R. E., et. al., J. Neurosci., 1989, 9, 403-414). As previously described (Bowman, op.cit.), a 2 cm segment of Ascaris suum muscle strip was suspended in a muscle bath filled with 37° Ascaris Ringers Solution {ARS; in mM: KCl (24.5), CaCl2 (5.9), MgCl2 (4.9), NaCl (4), NaC2 H3O2 (125) and Tris (5); pH 7.4}. The preparations were initially set at 12-15 g of tension and allowed to stabilize for approximately 15-30 minutes before drug treatment. Test compounds were added by pipet to the bath with final concentration of 30 uM reflecting the dilution in the test chamber. Raw data was collected from the BioReportTM program.

DAR-2, sequence (Q7KRX1 entry or part of it): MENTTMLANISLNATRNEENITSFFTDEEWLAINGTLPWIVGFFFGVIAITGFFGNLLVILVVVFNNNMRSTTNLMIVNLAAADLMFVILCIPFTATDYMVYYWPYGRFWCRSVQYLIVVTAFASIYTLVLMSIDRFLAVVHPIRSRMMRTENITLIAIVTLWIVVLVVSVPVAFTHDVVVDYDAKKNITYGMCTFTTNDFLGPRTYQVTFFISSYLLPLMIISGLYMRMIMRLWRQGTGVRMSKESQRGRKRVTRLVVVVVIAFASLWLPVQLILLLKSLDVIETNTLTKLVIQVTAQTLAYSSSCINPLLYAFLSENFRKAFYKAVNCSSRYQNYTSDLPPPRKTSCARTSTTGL

SMILES	IC50 [1]	Activity [2]
CC(=O)Nc1ccc(C(=O)CSc2nnc(-c3ccncc3)n2-c2ccccc2)cc1 [Compound 10]	297 nM	
COc1ccc(-n2c(SCC(=O)c3ccc4c(c3)OCCO4)nnc2-c2ccncc2)cc1 [Compound 36]	103 nM	
O=C(CSc1nnc(-c2ccncc2)n1-c1ccccc1)c1ccc2[nH]c(=O)oc2c1 [Compound 15]	4500 nM	
COc1ccc(C(=O)CSc2nnc(-c3ccncc3)n2-c2ccccc2)cc1 [Compound 6]	54 nM	Excitatory
O=C(CSc1nnc(-c2ccncc2)n1-c1ccccc1)c1ccc(Cl)cc1Cl [Compound 13]	1200 nM	
O=C(CSc1nnc(-c2ccncc2)n1-c1ccccc1)c1ccc2c(c1)OCCO2 [Compound 14]	436 nM	
O=C(CSc1nnc(-c2ccncc2)n1-c1ccccc1)c1ccc(F)cc1 [Compound 11]	268 nM	
O=C(CSc1nnc(-c2ccncc2)n1-c1ccccc1)c1ccccc1 [Compound 12]	124 nM	
COc1ccc(C(=O)CSc2nnc(-c3ccc(OC)cc3)n2-c2ccccc2)cc1 [Compound 43]	0.0014 nM	
CC(=O)Nc1ccc(C(=O)CSc2nnc(-c3ccncc3)n2-c2ccccc2)cc1[N+](=O)[O-] [Compound 9]	765 nM	
O=C(CSc1nnc(-c2ccncc2)n1-c1ccccc1)c1ccc(Cl)cc1 [Compound 7]	77 nM	

From patent US20040171650A1, “Novel anthelmintic and insecticidal compositions” (priority 2003, published 2004)
